# Laboratory results published in ChEMBL document CHEMBL1201862, “PubChem BioAssay data set” (2004).
# Calls of active or inactive are those of the source.
# Experiments:
# [1] = biological target: NACHT, LRR and PYD domains-containing protein 3 (Homo sapiens, UniProt Q96P20); assay: NALP3 inhibitors in yeast, dose response, luminescent (AID 488799); type: functional
# [2] = biological target: T1, Mannose-6-phosphate isomerase (Homo sapiens, UniProt P34949); assay: Confirmation of compounds inhibiting phosphomannose isomerase (PMI) via a fluorescence intensity assay using a high concentration of mannose 6-phosphate. [Related pubchem assays (depositor defined):AID1209, AID1220, AID1545, AID1553, AID1620]
# T1 sequence (P34949 whole entry): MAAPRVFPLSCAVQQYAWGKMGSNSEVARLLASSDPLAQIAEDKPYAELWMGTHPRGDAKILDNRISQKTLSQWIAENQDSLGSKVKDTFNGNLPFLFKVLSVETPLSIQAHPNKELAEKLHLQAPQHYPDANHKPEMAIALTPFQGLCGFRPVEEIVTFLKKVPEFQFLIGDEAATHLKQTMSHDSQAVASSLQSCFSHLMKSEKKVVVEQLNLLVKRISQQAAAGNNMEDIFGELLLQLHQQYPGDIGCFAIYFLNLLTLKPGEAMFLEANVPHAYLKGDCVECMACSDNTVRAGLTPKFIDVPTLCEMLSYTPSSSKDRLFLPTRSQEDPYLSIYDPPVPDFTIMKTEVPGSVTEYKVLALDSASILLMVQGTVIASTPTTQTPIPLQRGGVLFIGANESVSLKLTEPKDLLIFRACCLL
# [3] = biological target: T1, Mannose-6-phosphate isomerase; assay: PMI enzyme inhibitors, confirmation, biochemical, fluorescence intensity (AID 1535)
# [4] = biological target: Phosphomannomutase 2 (Homo sapiens, UniProt O15305); assay: Counter screen SAR assay for PMM2 inhibitors via a fluorescence intensity assay. [Related pubchem assays (depositor defined):AID1545, AID1574]
# [5] = biological target: Alkaline phosphatase, placental type (Homo sapiens, UniProt P05187); assay: PLAP enzyme inhibitors, confirmation, biochemical, luminescence (AID 1512); type: functional
# [6] = biological target: T2, Runt-related transcription factor 1/Core-binding factor subunit beta (Homo sapiens, UniProt Q01196+Q13951); assay: inhibitors of RUNX1 Runt–CBFb-SMMHC binding, primary screen, biochemical, FRET, Cerulean-Runt, Venus-CBFb-SMMHC, uHTS (AID 1434); type: protein assay;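 note: partner is the CBFb-SMMHC leukemia fusion protein rather than wild-type CBFb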
# [7] = biological target: T2, Runt-related transcription factor 1/Core-binding factor subunit beta; assay: inhibitors of RUNX1 Runt–CBFb-SMMHC binding, biochemical, TR-FRET (AID 1438); type: protein assay
# [8] = biological target: SUMO-activating enzyme (Homo sapiens, UniProt Q9UBT2); assay: SUMOylation inhibitor hit validation, confirmation, SUMOylation inhibitor project, biochemical, AlphaScreen (AID 2018); type: functional
# [9] = growth suppression of PTEN-null colon cells, dose response, cell-based, HCT116 PTEN knockout (AID 1047); type: functional;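 note: HCT116 colon tumor cells with PTEN knocked out; cells exposed to compound for 60 hours before readout; potency for loss of cell viability measured by luminescence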
# [10] = growth suppression of beta-catenin-knockout colon cells, dose response, cell-based, HCT116, human colon tumor (AID 1045); type: functional;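 note: HCT116 colon tumor cells with beta catenin knocked out; cells exposed to compound for 60 hours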
# [11] = Artemis endonuclease inhibitor potency, dose response, biochemical, fluorescence intensity (AID 720701); type: functional;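 note: Artemis endonuclease enzyme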
# [12] = biological target: Mu-type opioid receptor (Homo sapiens, UniProt P35372); assay: SAR Analysis of Antagonists of the MOR Receptor using an Image-Based Assay - Set 3. [Related pubchem assays (depositor defined):AID1777, AID1785, AID1786, AID1966, AID2133, AID2136, AID2284, AID2285, AID2420]; type: functional
# [13] = biological target: Delta-type opioid receptor (Homo sapiens, UniProt P41143); assay: SAR Analysis of Antagonists of the DOR Receptor using an Image-Based Assay - Set 3. [Related pubchem assays (depositor defined):AID1777, AID1785]; type: functional;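 note: U2OS cells expressing DOR1 and beta-arrestin GFP stimulated with 100 nM SNC80; imaging of GFP-tagged beta-arrestin moving into spots after receptor activation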
# [14] = biological target: T3, Kappa-type opioid receptor (Homo sapiens, UniProt P41145); assay: SAR analysis of small molecule antagonists of the kappa opioid receptor via a luminescent beta-arrestin assay - Set 3. [Related pubchem assays (depositor defined):AID1777, AID1778, AID1785, AID1786, AID1966, AID2133, AID2136, AID2285, AID2495]; type: functional
# [15] = biological target: T3, Kappa-type opioid receptor; assay: SAR analysis of Antagonists of the Kappa Opioid Receptor (KOR) using an Image-Based Assay - Set 3. [Related pubchem assays (depositor defined):AID1777, AID1785]; type: functional
# [16] = biological target: Troponin, cardiac muscle (Homo sapiens, UniProt P19429+P45379+P63316); assay: Fluorescence-based biochemical high throughput dose response assay for activators of the calcium sensitivity of cardiac Regulated Thin Filaments (RTF). [Related pubchem assays (depositor defined):AID493008, AID493018, AID504382, AID504383]; type: protein-complex assay
# [17] = biological target: T4, Voltage-gated N-type calcium channel alpha-1B subunit/Amyloid beta A4 precursor protein-binding family A member 1 (Homo sapiens, UniProt Q00975+Q02410); type: protein assay
# [18] = biological target: NS3 (Hepatitis C virus, UniProt A3EZJ3); assay: PubChem AID 2173; design: species or system Hepacivirus hominis
# [19] = biological target: T4, Voltage-gated N-type calcium channel alpha-1B subunit/Amyloid beta A4 precursor protein-binding family A member 1; type: protein assay; remark: listed apart in the source
# [20] = biological target: Estrogen receptor beta (Homo sapiens, UniProt Q92731); assay: ERβ–SRC-3 coactivator interaction inhibitors, confirmation, orthogonal assay, biochemical, ELISA, streptavidin-HRP readout (AID 1060)
# [21] = biological target: T5, Tyrosine-protein phosphatase non-receptor type 7 (Homo sapiens, UniProt P35236); assay: redox-dependent HePTP inhibition, mechanism study, biochemical, fluorescence (AID 2068); type: functional
# T5 sequence (P35236 whole entry): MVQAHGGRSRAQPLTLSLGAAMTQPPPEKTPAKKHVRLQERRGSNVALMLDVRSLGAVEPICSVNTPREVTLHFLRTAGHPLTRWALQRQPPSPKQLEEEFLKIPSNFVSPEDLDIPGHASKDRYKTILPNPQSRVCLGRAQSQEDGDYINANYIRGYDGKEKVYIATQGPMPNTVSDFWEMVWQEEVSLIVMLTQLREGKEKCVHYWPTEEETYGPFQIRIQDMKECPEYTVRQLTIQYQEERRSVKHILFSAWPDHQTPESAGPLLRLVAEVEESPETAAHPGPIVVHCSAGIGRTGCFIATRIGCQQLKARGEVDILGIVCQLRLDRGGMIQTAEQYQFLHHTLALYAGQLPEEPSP
# [22] = biological target: T4, Voltage-gated N-type calcium channel alpha-1B subunit/Amyloid beta A4 precursor protein-binding family A member 1; assay: disruptors of Mint-PDZ/N-type channel peptide interaction – biochemical, HTRF, SAR follow-up (AID 2489); type: functional
smiles,measurement,setting,value
COc1cc(CNCCc2ccccc2)ccc1OCc1ccc(Cl)nc1,IC50,[1],30.1 µM (active)
O=c1c2ccc(O)cc2sn1C1CCCC1,IC50,[2],> 100 µM (inactive)
same,IC50,[3],> 100 µM (inactive)
same,IC50,[4],> 100 µM (inactive)
COCCNC(=O)NC1(C(F)(F)F)Oc2cc(Cl)c(Cl)cc2O1,IC50,[5],> 100 µM (inactive)
C/C(=N\Nc1nc(-c2cc(C)ccc2C)cs1)c1cc2c(ccc3ccccc32)oc1=O,IC50,[6],> 100 µM (inactive)
same,IC50,[7],10.1 µM (active)
Cn1c(-c2ccc(C=O)s2)nc2c3ccccc3c3ccccc3c21,IC50,[8],> 100 µM (inactive)
same,EC50,[9],25.7 µM (active)
same,EC50,[10],24.9 µM (active)
same,IC50,[11],> 20 µM (inactive)
O=C(Cn1c(=O)c2cccn2c2cccnc21)NCCCN1CCC(Cc2ccccc2)CC1,IC50,[12],> 32 µM (inactive)
same,IC50,[13],> 32 µM (inactive)
same,IC50,[14],4.65 µM (active)
same,IC50,[15],1.31 µM (active)
O=[N+]([O-])c1ccc(/C=C/C2=NN(c3ccccc3)C(c3ccco3)C2)cc1 (configuration not stated),EC50,[16],397 nM (active)
O=C(NC1CCCC1)c1ccc2nc(-c3ccco3)c(-c3ccco3)nc2c1,IC50,[17],26 µM (active)
same,IC50,[18],5.49 µM (active)
same,IC50,[19],2.28 µM (active)
same,IC50,[20],478 nM (not active)
same,IC50,[21],2.94 µM (active)
same,IC50,[22],> 56.8 µM (inactive)
